The structures appear in SMILES notation. Where a SMILES comes first, the peptide text is derived from it.

The assay concerns the target T1, Elastase from human neutrophils (Homo sapiens, UniProt P08246).
T1 sequence (P08246 30-267): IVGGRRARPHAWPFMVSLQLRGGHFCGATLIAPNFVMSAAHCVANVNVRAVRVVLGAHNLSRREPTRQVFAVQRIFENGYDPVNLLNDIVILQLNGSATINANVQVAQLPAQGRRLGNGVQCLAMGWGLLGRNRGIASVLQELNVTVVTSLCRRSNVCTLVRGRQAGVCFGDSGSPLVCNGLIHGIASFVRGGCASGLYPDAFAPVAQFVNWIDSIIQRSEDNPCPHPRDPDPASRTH
As to the kind of experiment: Enzymatic assay, elastase. The conditions noted are these: Elastase IC50.
Compound `CCCCCCCC[C@@H]1NC(=O)[C@@H]2CCCN2C(=O)[C@H]2CCCN2C(=O)[C@H](Cc2ccc(O)cc2)NC(=O)[C@@H]2CSSC[C@H](NC1=O)C(=O)N[C@@H]([C@@H](C)O)C(=O)N[C@@H](C)C(=O)N[C@@H](CO)C(=O)N[C@@H](CC1CCCCC1)C(=O)N1CCC[C@H]1C(=O)N1CCC[C@H]1C(=O)N[C@@H](CCC(N)=O)C(=O)N2` [Ex. 150] (HELM PEPTIDE1{[CCCCCCCC[C@H](N[*:1])C(=O)[*:2]].C.T.A.S.[Cha].P.P.Q.C.Y.[dP].P}$PEPTIDE1,PEPTIDE1,2:R3-10:R3|PEPTIDE1,PEPTIDE1,1:R1-13:R2$$$V2.0) gave a half-maximal inhibitory concentration (IC50) of 10 nM.
`CCCCCCCC[C@@H]1NC(=O)[C@@H]2CCCN2C(=O)[C@H]2CCCN2C(=O)[C@H](CCC(N)=O)NC(=O)[C@@H]2CSSC[C@H](NC1=O)C(=O)N[C@@H]([C@@H](C)O)C(=O)N[C@@H](C)C(=O)N[C@@H](CO)C(=O)N[C@@H](CC1CCCCC1)C(=O)N1CCC[C@H]1C(=O)N1CCC[C@H]1C(=O)N[C@@H](CCC(N)=O)C(=O)N2` [Ex. 159] (HELM PEPTIDE1{[CCCCCCCC[C@H](N[*:1])C(=O)[*:2]].C.T.A.S.[Cha].P.P.Q.C.Q.[dP].P}$PEPTIDE1,PEPTIDE1,2:R3-10:R3|PEPTIDE1,PEPTIDE1,1:R1-13:R2$$$V2.0) registered an IC50 of 7 nM.
The compound `CCCC[C@@H]1NC(=O)[C@@H]2CCCN2C(=O)[C@@H](CO)NC(=O)[C@H](Cc2ccc(O)cc2)NC(=O)[C@@H]2CSSC[C@H](NC1=O)C(=O)N[C@@H]([C@@H](C)O)C(=O)N[C@@H](C)C(=O)N[C@@H](CO)C(=O)N[C@@H]([C@@H](C)CC)C(=O)N1CCC[C@H]1C(=O)N1CCC[C@H]1C(=O)N[C@@H](CCC(N)=O)C(=O)N2` [Ex. 118] (HELM PEPTIDE1{A.S.I.P.P.Q.C.Y.[dS].P.[Nle].C.T}$PEPTIDE1,PEPTIDE1,7:R3-12:R3|PEPTIDE1,PEPTIDE1,1:R1-13:R2$$$V2.0) registered an IC50 of 43 nM. Against the preceding compound, the IC50 is about 6.1-fold higher.
Compound `CCCCCCCC[C@@H]1NC(=O)[C@@H]2CCCN2C(=O)[C@H]2CCCN2C(=O)[C@H](Cc2ccccc2)NC(=O)[C@@H]2CSSC[C@H](NC1=O)C(=O)N[C@@H]([C@@H](C)O)C(=O)N[C@@H](C)C(=O)N[C@@H](CO)C(=O)N[C@@H]([C@@H](C)CC)C(=O)N1CCC[C@H]1C(=O)N1CCC[C@H]1C(=O)N[C@@H](CCC(N)=O)C(=O)N2` [Ex. 145] (HELM PEPTIDE1{[CCCCCCCC[C@H](N[*:1])C(=O)[*:2]].C.T.A.S.I.P.P.Q.C.F.[dP].P}$PEPTIDE1,PEPTIDE1,2:R3-10:R3|PEPTIDE1,PEPTIDE1,1:R1-13:R2$$$V2.0) gave an IC50 of 14 nM.
For `CCCC[C@@H]1NC(=O)[C@@H]2CCCN2C(=O)[C@H]2CCCN2C(=O)[C@H](Cc2ccc(O)cc2)NC(=O)[C@H](CCCNC(=N)N)NC(=O)[C@H](CCC(N)=O)NC(=O)[C@@H]2CCCN2C(=O)[C@@H]2CCCN2C(=O)[C@H]([C@@H](C)CC)NC(=O)[C@H](CO)NC(=O)[C@H](C)NC(=O)[C@H]([C@@H](C)O)NC(=O)[C@H](CCC(=O)O)NC1=O` [Ex. 105] (HELM PEPTIDE1{[Nle].E.T.A.S.I.P.P.Q.R.Y.[dP].P}$PEPTIDE1,PEPTIDE1,1:R1-13:R2$$$V2.0), the IC50 amounted to 34 nM. This IC50 lies about 2.4-fold higher than the previous one.
For the compound `CCCCCCCC[C@@H]1NC(=O)[C@@H]2CCCN2C(=O)[C@H]2CCCN2C(=O)[C@H](Cc2ccc(O)cc2)NC(=O)[C@H](CCC(N)=O)NC(=O)[C@H](CCC(N)=O)NC(=O)[C@@H]2CCCN2C(=O)[C@@H]2CCCN2C(=O)[C@H]([C@@H](C)CC)NC(=O)[C@H](CO)NC(=O)[C@H](C)NC(=O)[C@H]([C@@H](C)O)NC(=O)[C@H]([C@@H](C)O)NC1=O` [Ex. 147] (HELM PEPTIDE1{[CCCCCCCC[C@H](N[*:1])C(=O)[*:2]].T.T.A.S.I.P.P.Q.Q.Y.[dP].P}$PEPTIDE1,PEPTIDE1,1:R1-13:R2$$$V2.0), the IC50 was 11 nM.
Regarding `CC[C@H](C)[C@@H]1NC(=O)[C@H](CO)NC(=O)[C@H](C)NC(=O)[C@H]([C@@H](C)O)NC(=O)[C@H](CCC(=O)O)NC(=O)[C@H](CCc2ccccc2)NC(=O)[C@@H]2CCCN2C(=O)[C@H]2CCCN2C(=O)[C@H](Cc2ccc(O)cc2)NC(=O)[C@H](CCCCN)NC(=O)[C@H](CCC(N)=O)NC(=O)[C@@H]2CCCN2C(=O)[C@@H]2CCCN2C1=O` [Ex. 132] (HELM PEPTIDE1{[O=C([C@H](CCc1ccccc1)N[*:1])[*:2]].E.T.A.S.I.P.P.Q.K.Y.[dP].P}$PEPTIDE1,PEPTIDE1,1:R1-13:R2$$$V2.0), the IC50 was 26 nM.
For the compound `CC[C@H](C)[C@@H]1NC(=O)[C@H](CO)NC(=O)[C@H](C)NC(=O)[C@H]([C@@H](C)O)NC(=O)[C@@H]2CSSC[C@H](NC(=O)[C@H](CCC(N)=O)NC(=O)[C@@H]3CCCN3C(=O)[C@@H]3CCCN3C1=O)C(=O)N[C@@H](Cc1ccc(O)cc1)C(=O)N1CCC[C@@H]1C(=O)N1CCC[C@H]1C(=O)N[C@@H](C1CCCCC1)C(=O)N2` [Ex. 101] (HELM PEPTIDE1{[O=C([C@@H](N[*:1])C1CCCCC1)[*:2]].C.T.A.S.I.P.P.Q.C.Y.[dP].P}$PEPTIDE1,PEPTIDE1,2:R3-10:R3|PEPTIDE1,PEPTIDE1,1:R1-13:R2$$$V2.0), the IC50 is 49 nM.
`CCCCCCCC[C@@H]1NC(=O)[C@@H]2CCCN2C(=O)[C@H]2CCCN2C(=O)[C@H](Cc2ccccc2)NC(=O)[C@@H]2CSSC[C@H](NC1=O)C(=O)N[C@@H]([C@@H](C)O)C(=O)N[C@@H](C)C(=O)N[C@@H](CO)C(=O)N[C@@H](CC1CCCCC1)C(=O)N1CCC[C@H]1C(=O)N1CCC[C@H]1C(=O)N[C@@H](CCC(N)=O)C(=O)N2` [Ex. 157] (HELM PEPTIDE1{[CCCCCCCC[C@H](N[*:1])C(=O)[*:2]].C.T.A.S.[Cha].P.P.Q.C.F.[dP].P}$PEPTIDE1,PEPTIDE1,2:R3-10:R3|PEPTIDE1,PEPTIDE1,1:R1-13:R2$$$V2.0) showed a concentration for half-maximal inhibition (IC50) of 7 nM.
On to `CCCC[C@@H]1NC(=O)[C@H](CCC(N)=O)NC(=O)[C@H]2CCCN2C(=O)[C@H](CC2CCCCC2)NC(=O)[C@@H]2CSSC[C@H](NC1=O)C(=O)N[C@@H]([C@@H](C)O)C(=O)N[C@@H](C)C(=O)N[C@@H](CO)C(=O)N[C@@H](CC1CCCCC1)C(=O)N1CCC[C@H]1C(=O)N1CCC[C@H]1C(=O)N[C@@H](CCC(N)=O)C(=O)N2` [compound 172] (HELM PEPTIDE1{[Nle].C.T.A.S.[Cha].P.P.Q.C.[Cha].[dP].Q}$PEPTIDE1,PEPTIDE1,2:R3-10:R3|PEPTIDE1,PEPTIDE1,1:R1-13:R2$$$V2.0), for which the IC50 amounted to 13 nM.
On to `CCCC[C@@H]1NC(=O)[C@@H]2CCCN2C(=O)[C@H]2CCCN2C(=O)[C@H](Cc2ccc(O)cc2)NC(=O)[C@H](CCC(N)=O)NC(=O)[C@H](CCC(N)=O)NC(=O)[C@@H]2CCCN2C(=O)[C@@H]2CCCN2C(=O)[C@H](CC2CCCCC2)NC(=O)[C@H](CO)NC(=O)[C@H](C)NC(=O)[C@H]([C@@H](C)O)NC(=O)[C@H]([C@@H](C)O)NC1=O` [Ex. 139] (HELM PEPTIDE1{[Nle].T.T.A.S.[Cha].P.P.Q.Q.Y.[dP].P}$PEPTIDE1,PEPTIDE1,1:R1-13:R2$$$V2.0), for which the IC50 is 18 nM.
`CCCC[C@@H]1NC(=O)[C@H]([C@@H](C)O)NC(=O)[C@@H]([C@H](C)O)NC(=O)[C@H](Cc2ccc(O)cc2)NC(=O)[C@@H]2CSSC[C@H](NC1=O)C(=O)N[C@@H]([C@@H](C)O)C(=O)N[C@@H](C)C(=O)N[C@@H](CO)C(=O)N[C@@H]([C@@H](C)CC)C(=O)N1CCC[C@H]1C(=O)N1CCC[C@H]1C(=O)N[C@@H](CCC(N)=O)C(=O)N2` [Ex. 126] (HELM PEPTIDE1{A.S.I.P.P.Q.C.Y.[dT].T.[Nle].C.T}$PEPTIDE1,PEPTIDE1,7:R3-12:R3|PEPTIDE1,PEPTIDE1,1:R1-13:R2$$$V2.0): the IC50 stood at 36 nM.
`CCCC[C@@H]1NC(=O)[C@H](CCC(N)=O)NC(=O)[C@H]2CCCN2C(=O)[C@H](Cc2ccc(O)cc2)NC(=O)[C@@H]2CSSC[C@H](NC1=O)C(=O)N[C@@H]([C@@H](C)O)C(=O)N[C@@H](C)C(=O)N[C@@H](CO)C(=O)N[C@@H](CC1CCCCC1)C(=O)N1CCC[C@H]1C(=O)N1CCC[C@H]1C(=O)N[C@@H](CCC(N)=O)C(=O)N2` [compound 170] (HELM PEPTIDE1{[Nle].C.T.A.S.[Cha].P.P.Q.C.Y.[dP].Q}$PEPTIDE1,PEPTIDE1,2:R3-10:R3|PEPTIDE1,PEPTIDE1,1:R1-13:R2$$$V2.0) gave an IC50 of 16 nM.
For the compound `CC[C@H](C)[C@@H]1NC(=O)[C@H](CO)NC(=O)[C@H](C)NC(=O)[C@H]([C@@H](C)O)NC(=O)[C@@H]2CSSC[C@H](NC(=O)[C@H](CCC(N)=O)NC(=O)[C@@H]3CCCN3C(=O)[C@@H]3CCCN3C1=O)C(=O)N[C@@H](Cc1ccc(O)cc1)C(=O)N1CCC[C@@H]1C(=O)N[C@@H](CCC(N)=O)C(=O)N[C@@H](CCc1ccccc1)C(=O)N2` [compound 173] (HELM PEPTIDE1{[O=C([C@H](CCc1ccccc1)N[*:1])[*:2]].C.T.A.S.I.P.P.Q.C.Y.[dP].Q}$PEPTIDE1,PEPTIDE1,2:R3-10:R3|PEPTIDE1,PEPTIDE1,1:R1-13:R2$$$V2.0), 12 nM corresponded to half-maximal inhibition (IC50).
In turn, `CCCCCCCC[C@@H]1NC(=O)[C@H](CCC(N)=O)NC(=O)[C@H]2CCCN2C(=O)[C@H](CCC(N)=O)NC(=O)[C@@H]2CSSC[C@H](NC1=O)C(=O)N[C@@H]([C@@H](C)O)C(=O)N[C@@H](C)C(=O)N[C@@H](CO)C(=O)N[C@@H](CCCCCCCC)C(=O)N1CCC[C@H]1C(=O)N1CCC[C@H]1C(=O)N[C@@H](CCC(N)=O)C(=O)N2` [compound 178] (HELM PEPTIDE1{[CCCCCCCC[C@H](N[*:1])C(=O)[*:2]].C.T.A.S.[CCCCCCCC[C@H](N[*:1])C(=O)[*:2]].P.P.Q.C.Q.[dP].Q}$PEPTIDE1,PEPTIDE1,2:R3-10:R3|PEPTIDE1,PEPTIDE1,1:R1-13:R2$$$V2.0) displayed an IC50 of 6 nM.
Turning to `CCCC[C@@H]1NC(=O)[C@@H]2CCCN2C(=O)[C@H]2CCCN2C(=O)[C@H](CCCC)NC(=O)[C@@H]2CSSC[C@H](NC1=O)C(=O)N[C@@H]([C@@H](C)O)C(=O)N[C@@H](C)C(=O)N[C@@H](CO)C(=O)N[C@@H]([C@@H](C)CC)C(=O)N1CCC[C@H]1C(=O)N1CCC[C@H]1C(=O)N[C@@H](CCC(N)=O)C(=O)N2` [Ex. 94] (HELM PEPTIDE1{[Nle].C.T.A.S.I.P.P.Q.C.[Nle].[dP].P}$PEPTIDE1,PEPTIDE1,2:R3-10:R3|PEPTIDE1,PEPTIDE1,1:R1-13:R2$$$V2.0), the midpoint of inhibition, the IC50, lay at 50 nM.

One may read the IC50 as the concentration that gives 50% inhibition.

The values are drawn from patent US8658604B2, “Template-fixed beta-hairpin peptidomimetics with protease inhibitory activity” (Polyphor Ltd, priority 2005, dated 2014).
